Patent US10610564B2, “IRGM and precision autophagy controls for antimicrobial and inflammatory disease states and methods of detection of autophagy” (STC.UNM, priority 2015, dated 2020)

Columns and labels:
[1] = system: AMPK; conditions: statement in figure legend; compound C used at 20, 40, 80, 160 μM; cited from earlier work
[2] = system: NOD2; test: Western blot of NOD2 levels in HEK293T cells co-expressing GFP-IRGM and Flag-NOD2; assay type: cell-based; conditions: Bafilomycin A1 100 nM for 8 h
Method: (A) Effects of IRGM expression on NOD2 levels in transfected HEK293T cells. Data, means±SE; *, p<0.05 (Student's unpaired t test). (B) Lysates of HEK293T cell co-expressing GFP or GFP-IRGM and Flag-NOD2, untreated/treated with Bafilomycin A1 (100 nM for 8 h) were subjected to Western blotting. (C) Lysates of cells co-expressing Flag-NOD2 and GFP, GFP-IRGM, or GFP-IRGM-K^mut were subjected to Western blotting. (D, E) Lysates from HEK293T cells co-expressing Myc-ULK1 and either GFP or increasing amounts of GFP-IRGM were subjected to Western blotting as in (D) with the relative abundance of Myc-ULK1 shown in (E). Blot was processed (dashed vertical line) to remove irrelevant lanes. (F) HEK293T cells transfected with plasmids encoding GFP, GFP-IRGM, or GFP-IRGM-K^mut and either Myc-ULK1 or Flag-Beclin 1 were lysed and subjected to Western blotting. Data from densitometric analyses of Western blots (B, C, E), means±SE, n=3*, p<0.05 (ANOVA). (G) Depiction of the role of IRGM ubiquitination in NOD2 degradation and ULK1 stabilization. See also FIG. 13.

[3] = system: NLRP3; test: NLRP3 levels by immunoblot in THP-1 cells; assay type: cell-based, human; conditions: THP-1 cells treated with IFN-γ and LPS, with or without bafilomycin A1
Method: (A) Levels of NLRP3 were determine in lysates from THP-1 cells subjected to TRIM20 or Scr siRNA were activated with 1,000 U/mL IFN-γ for 3 h, and 2.5 μg/mL LPS for 2 h (for optimal TRIM20 expression; Supplementary FIG. 24B). RI, relative intensity. (B) Levels of NLRP3 were determined from THP-1 subjected to TRIM20 or control knockdown and treated or not with bafilomycin A1 (Baf A1). (C) The abundance of NLRP3 protein was determined from THP-1 cells subjected to TRIM20 or control knockdown and exposed to Escherichia coli strain LF82 and IFN-γ in the presence or absence of bafilomycin. (D) The abundance of NLRP3 protein was determined from primary human MDMs subjected to TRIM20 or control knockdown and exposed to LPS and IFN-γ in the presence or absence of bafilomycin. (E) Levels of NLRP3 were determined from THP-1 cells subjected to ULK1, Beclin 1, or Scr siRNA were treated with IFN-γ and LPS. (F-H) Levels of NLRP3 (F), NLRP1 (G), or pro-capsase 1 (H) were determined in cells expressing GFP or GFP-TRIM20 following autophagy induction (EBSS, 3 h) in the presence or absence of bafilomycin A1. […]
(A) Co-immunoprecipitation analysis of deletion variants of TRIM20 (as GFP fusions; asterisks denote fusion products on the bottom blot) with NLRP3 in HEK293 cells. […] (E) THP-1 cells were treated with 1.0 μg/ml of LPS for 3 h, and levels of NLRP3 in lysate were determined by immunoblots. […]

[4] = system: NLRP3, NLRP1, pro-caspase 1, TRIM20; test: Levels of inflammasome components and GFP-TRIM20 in cells expressing GFP-TRIM20 after autophagy induction (EBSS); assay type: cell-based; conditions: EBSS 3 h, with bafilomycin A1
Method: (A) Levels of NLRP3 were determine in lysates from THP-1 cells subjected to TRIM20 or Scr siRNA were activated with 1,000 U/mL IFN-γ for 3 h, and 2.5 μg/mL LPS for 2 h (for optimal TRIM20 expression; Supplementary FIG. 24B). RI, relative intensity. (B) Levels of NLRP3 were determined from THP-1 subjected to TRIM20 or control knockdown and treated or not with bafilomycin A1 (Baf A1). (C) The abundance of NLRP3 protein was determined from THP-1 cells subjected to TRIM20 or control knockdown and exposed to Escherichia coli strain LF82 and IFN-γ in the presence or absence of bafilomycin. (D) The abundance of NLRP3 protein was determined from primary human MDMs subjected to TRIM20 or control knockdown and exposed to LPS and IFN-γ in the presence or absence of bafilomycin. (E) Levels of NLRP3 were determined from THP-1 cells subjected to ULK1, Beclin 1, or Scr siRNA were treated with IFN-γ and LPS. (F-H) Levels of NLRP3 (F), NLRP1 (G), or pro-capsase 1 (H) were determined in cells expressing GFP or GFP-TRIM20 following autophagy induction (EBSS, 3 h) in the presence or absence of bafilomycin A1. Data, means±SE, n≥3, *P<0.05, ^†P≥0.05 (ANOVA).
(A) Co-immunoprecipitation analysis of deletion variants of TRIM20 (as GFP fusions; asterisks denote fusion products on the bottom blot) with NLRP3 in HEK293 cells. (B) THP-1 cells were treated with IFN-γ for 3 h, additionally treated with 2.5 μg/ml of LPS for indicated periods, and TRIM20 mRNA levels were determined by quantitative PCR. […] (C and D) Levels of NLRP3 were determined in lysates from THP-1 cells subjected to TRIM20 or Scr siRNA were (C) untreated either IFN-γ or LPS, or (D) LPS alone for 2 h. (E) THP-1 cells were treated with 1.0 μg/ml of LPS for 3 h, and levels of NLRP3 in lysate were determined by immunoblots. (F) Knockdown efficacies of ULK1 and Beclin 1 by siRNA were examined by quantitative RT-PCR. (G and H) Levels of GFP-TRIM20 were determined in cells co-expressing (G) with or (H) without NLRP3 following autophagy induction (EBSS, 3 h) in the presence or absence of bafilomycin A1. […]

[5] = system: dimerized IRF3; test: IRF3 dimerization assay (native PAGE) in THP-1 cells; assay type: cell-based, human; conditions: HT-DNA and IFN-γ, with bafilomycin
Source text: (A) Confocal microscopy of HeLa cells co-expressing mCherry-TRIM21, Flag-IRF3, and GFP-LC3B in the presence of bafilomycin A1. White outline, cell boundary. Arrows indicate the colocalization. (B) Confocal microscopy of HEK293 cells co-expressing mCherry-TRIM21, Flag-IRF3, and GFP-ULK1. (C) Co-immunoprecipitation analysis of IRF3-ULK1 complexes in the presence and absence of TRIM21. Lysates from HEK293 cells transiently expressing Myc-ULK1, Flag-IRF3, and either […] or GFP were immunoprecipitated with anti-Myc, and immunoblots were probed as indicated. (D) Levels of dimerized IRF3 were assessed by native PAGE from THP-1 cells subjected to TRIM21 or control knockdown, and stimulated for 12 h by herring testis DNA (HT-DNA) transfected into the cells in the presence of 200 U/mL IFN-γ. […]
Detection of IRF3 dimerization was performed by native polyacrylamide gel electrophoresis (PAGE) as previously described (Takahasi et al., 2003). Quantitative RT-PCR was performed as previously described (Kimura et al., 2013) using the following primer sets: ULK1, ([…], […]); BECN1, ([…], […]); ACTIN, ([…], […]); TRIM1, ([…], […]); TRIM5, ([…], […]); TRIM8, ([…], […]); TRIM16, ([…], […]); TRIM20, ([…], […]); TRIM21, ([…], […]); TRIM22, ([…], […]); TRIM28, ([…], […]); TRIM56, ([…], […]); and TRIM65, ([…], […]). […]

Compound | AMPK inhibition [1] | IRGM-promoted NOD2 degradation [2] | NLRP3 degradation [3] | TRIM20 degradation in the presence of NLRP3 ([4]; GFP-TRIM20 co-expressed with NLRP3) | degradation of pro-caspase 1 and NLRP1 co-expressed with TRIM20 ([4]; cells expressing GFP-TRIM20) | destabilizing effect of TRIM20 overexpression on NLRP3 levels ([4]; cells expressing GFP-TRIM20) | dimerized IRF3 degradation [5]
c1cc(-c2cnn3cc(-c4ccc(OCCN5CCCCC5)cc4)cnc23)ccn1 [Compound C] | potent inhibitor of AMPK | – | – | – | – | – | –
CO/C1=C\C(C)=C\[C@@H](C)[C@@H](O)[C@@H](C)C/C(C)=C/C=C/[C@H](OC)[C@@H]([C@@H](C)[C@@H](O)[C@H](C)[C@@]2(O)C[C@@H](O)[C@H](C)[C@@H](C(C)C)O2)OC1=O [bafilomycin A1] | – | partially blocked | protected NLRP3 | protected | inhabitable | suppressed | protected dimerized IRF3 from degradation
